This assay concerns ornithine decarboxylase (ODC). The assay can be described thus: Inhibition of TPA induction of ornithine decarboxylase (ODC assay). The class given is biochemical. To be noted: TPA-induced ODC activity. An excerpt: The retinoic acid-like activity of these compounds is confirmed through the classic measure of retinoic acid activity involving the effects of retinoic acid on ornithine decarboxylase. The original work on the correlation between retinoic acid and decrease in cell proliferation was done by Verma & Boutwell, Cancer Research, 1977, 37,2196-2201. That reference discloses that ornithine decarboxylase (ODC) activity increased precedent to polyamine biosynthesis. It has been established elsewhere that increases in polyamine synthesis can be correlated or associated with cellular proliferation. Thus, if ODC activity could be inhibited, cell hyperproliferation could be modulated. Although all cases for ODC activity increases are unknown, it is known that 12-0-tetradecanoylphorbol-13-acetate (TPA) induces ODC activity. Retinoic acid inhibits this induction of ODC activity by TPA. […] Activity of exemplary compounds of the present invention in the above-described ODC assay is disclosed in Table 1 which provides IC80 data for the exemplary compounds. ("IC80 " is that concentration of the test compound which causes 80% inhibition in the ODC assay).

SMILES strings stand for the structures.

For `CCOC(=O)c1ccc([C@@H]2O[C@@]2(C)c2ccc3c(c2)C(C)(C)CC(C)(C)O3)cc1` (relative stereo) [Compound 1, Ethyl(±)-(E)-4-[2-methyl-2-(2,2,4,4-tetramethylchroman-6-yl)oxiran-1-yl]benzoate], the “IC80 conc (concentration of the test compound which causes 80% inhibition in the ODC assay)” value is more than 300 nmols.
As to `CC1(C)CC(C)(C)c2cc([C@]3(C)O[C@H]3c3ccc(C(=O)O)cc3)ccc2O1` (relative stereo) [Compound 2, (±)-(E)T4-[2-methyl-2-(2,2,4,4-tetramethylchroman-6-yl)oxiran-1-yl]benzoic acid], the “IC80 conc (concentration of the test compound which causes 80% inhibition in the ODC assay)” value is 73 nmols.

For the origin of these results see patent publication US5556996A, “Oxiranyls disubstituted with a phenyl group and a substituted chromanyl or tetrahydroquinolinyl group having retinoid like activity” (Allergan, priority 1994, dated 1996).
